Measured values: paper PMC8648872, “A host-directed macrocyclic peptide therapeutic for MDR gram negative bacterial infections” (Scientific Reports, 2021)
Entries after “also recorded” stand apart in the source; their conditions may differ. Where a SMILES comes first, the peptide text is derived from it. Bridges are numbered along the chain shown (N, C = ends).

Assays:
Kp-1705 = assay: Antibacterial activity of peptide-containing peritoneal fluid; type: cell-based, K. pneumoniae; details: Kp-1705 incubated in PF containing 7.5 µg/ml peptide, 1 h, 37 °C, CFU plating
Description: Cryopreserved Kp-1705 was suspended in PBS to a density of ca. 1 × 10^9 CFU/ml, and incubated with saline or 1.25 µg/ml MTD12813 at room temperature for 1 h. Mice (n = 26) were then infected i.p. with 500 µl of saline- or MTD12813- pretreated Kp-1705, and a third cohort (n = 12) received 500 µl i.p. of 1.25 µg/ml MTD12813 immediately following infection with saline treated Kp-1705. Five mice from each cohort were euthanized 4 h p.i., and peritoneal lavage was collected for bacterial burden determination and cytospin preparation. In vitro antibacterial activity of MTD12813 (1.25 μg/ml) -treated cells (1 h; 37 °C) was determined by plating saline or peptide treated cells on TSA plates. Growth kinetics of saline and MTD12813-treated cells was determined by diluting samples from the 1 h incubation mixtures 1:40 into TSB and monitoring growth (620 nm) for 5.5 h at 37 °C. Antibacterial activity of MTD12813 in PF was determined by i.p. injection of naïve male BALB/c mice (n = 5 per group) with 1.25 mg/kg of MTD12813 or saline i.p. (10 ml/kg). […] Peritoneal fluid was clarified by centrifugation at 1200×g and an aliquot used to quantify MTD12813 by LC–MS/MS, as described above. Antimicrobial activity was determined by incubating PF (9:1 vol/vol) with Kp-1705 at a final density of 3 × 10^7 CFU/ml. […]

RAW 264.7 macrophages = assay: Phagocytosis assay, RAW 264.7 macrophages with live Kp-1705; type: cell-based, mouse; details: RAW 264.7 cells, live Kp-1705, MOI 50:1, 0–10 µg/ml peptide, 30 min, 37 °C
Description: Mouse RAW 264.7 macrophages (RAW cells; ATCC, TIB-71) were grown in Dulbecco’s Modified Eagle Medium (DMEM) with 10% heat-inactivated fetal bovine serum (HI-FBS) with 100 U/ml penicillin/streptomycin, and suspended to 2–3 × 10^6 cells/ml in fresh media before use.
Kp-1705 was grown overnight, harvested by centrifugation, washed twice, resuspended in Hank’s Balanced Salt Solution (HBSS), and adjusted to a density of 2.5 × 10^8 CFU/ml. Bacteria were pre-incubated with varied concentrations of MTD12813 at room temperature for 30 min, and incubated (MOI 50:1) with RAW cells (2.5 × 10^6 cell/ml) with orbital shaking at 37 °C for 30 min. Cytospin preparations of 100 µl (2.5 × 10^5 RAW cells/slide) samples were then prepared, fixed with methanol, and stained with hematoxylin and eosin (H & E). Slides were viewed at 100× and 50 RAW cells selected from random fields were manually counted for number of cell associated bacteria. All samples were run in duplicate and experiments performed twice.

[1] = Peptide stability with log-phase E. coli ATCC-BAA-2340 (bacterial proteases); type: in vitro ADME; details: suspension of log-phase E. coli ATCC-BAA-2340 bacteria, log-phase E. coli ATCC-BAA-2340, 50 mM HEPES, 37 °C, LC–MS/MS, read-out: MTD12813 found intact
Description: MTD12813 (final concentration of 100 µg/ml) was added to either 90% human EDTA plasma or 90% human serum and incubated at 37 °C for 48 h. Samples were processed by addition of 10% HOAc and 5% ACN (final concentrations) at time 0 and 48 h, and MTD12813 was quantified by C18 RP-HLPC on an Acquity H-Class UPLC with an analytical PDA detector using Empower 3 software (Waters). All samples were performed with technical replicates and analyzed by UPLC in duplicate and the experiment repeated once. […] A time 0 h sample was collected, and the remaining suspension incubated at 37 °C for 24 h. Samples were processed by addition of 5% formic acid/5% acetonitrile, vortexed, and clarified at 22,000×g for 10 min. Supernatant MTD12813 was then quantified by LC–MS/MS as described in PK section above. All samples were performed with technical replicates and analyzed by LC–MS/MS in duplicate.

plasma cytokines = assay: Plasma multiplex cytokine analysis in Kp-1705 sepsis; type: in vivo, BALB/c mice; details: 1.25 mg/kg i.p. 1 h p.i.
Description: EDTA-anticoagulated blood was collected aseptically by terminal cardiac puncture and analyzed for complete blood cell count using an Element HT5 hematology analyzer (Heska). Blood plasma and clarified peritoneal lavage were prepared by two-step centrifugation described previously. Plasma cytokine levels were quantified using a mouse-specific MILLIPLEX MAP kit (Millipore Cat# MCYTMAG-70K) as described.
Supplemental Table 1. Mice were challenged i.p. with Kp-1705 and treated 1 h later with MTD12813 (1.25 mg/kg i.p.) or saline. The sham cohort received bacteria-free suspension buffer at t=0 followed by saline 1 h later. Mice were euthanized 2, 4, or 24 h p.i., and plasma samples were subjected to multiplex cytokine analysis. P values calculated using ANOVA with Uncorrected Fisher’s LSD comparing saline and MTD12813 treated mice at respective time points.

SMILES: CC[C@H](C)[C@@H]1NC(=O)[C@@H]2CSSC[C@H](NC(=O)[C@H]([C@@H](C)CC)NC(=O)[C@@H]3CSSC[C@H](NC1=O)C(=O)N[C@@H](C(C)C)C(=O)NCC(=O)N[C@@H](CCCNC(=N)N)C(=O)NCC(=O)N3)C(=O)N[C@@H](C(C)C)C(=O)N[C@@H](CCCNC(=N)N)C(=O)N[C@@H](CCCNC(=N)N)C(=O)N[C@@H](CCCNC(=N)N)C(=O)N2 [MTD12813] (cyclo(CICVGRGCICVRRR); disulfide 1-10, 3-8)
- bacterial killing in peritoneal fluid containing peptide (Kp-1705): no bacterial killing was observed; also recorded: no bactericidal activity
- concentration of maximal phagocytic activity (RAW 264.7 macrophages): 0.313 µg/mL
- remaining at 24 h, 1.25 µg/ml [1]: 81.3 ± 2.1%
- plasma CCL4 and CXCL2 (plasma cytokines; 2 h p.i.): statistically significant reductions
- plasma IL-9 and IL-15 levels (plasma cytokines; 4 h p.i.): significant increases
- plasma TNF, IL-6 and CXCL1 (KC) (plasma cytokines; 4 h p.i.): significantly reduced
- change of plasma TNF versus saline (plasma cytokines; 24 h p.i.): -89.8%
